Results published in article PMC9775433 (Cancers, 2022).
Where “and” joins values, the source holds several entries; their conditions need not be identical. Equal entries are not always repeated.

Assays:
[1] = Skin drug concentration in skin biopsy at day 17 (LC-MS-MS); type: in vivo, human; details: individual patient; for concentration at 17 day: human, skin, oral, Skin - Sunitinib concentration
Experimental: All tissue samples were immediately snap frozen (within 1 min) in liquid nitrogen and cryopreserved at −80 °C until the day of analysis.
Tissue biopsies were weighed accurately before analysis. Tissue homogenate was prepared by using a mechanical homogenizer. The tumor tissue was homogenized with the precellys lysing kit (bertin instruments®) in the Roche MagNA lyzer®. […] Tissue homogenate samples were directly analyzed.
(§1) Supplementary data S2 – Methods (Details)
(§2) samples; using a validated liquid chromatography–tandem mass spectrometry (LC-MS-MS).
(§3) The system consisted of an Acquity H‐Class UPLC system, coupled to a Xevo TQ‐S micro
(§4) tandem mass spectrometer. […]

[2] = Plasma pharmacokinetics of high-dose intermittent sunitinib (LC-MS-MS, NONMEM); type: in vivo, human; details: human, plasma, oral, Cmax plasma - Sunitinib concentration, individual patient
Experimental: Study pharmacokinetic assessment in plasma: Ethylenediaminetetraacetic acid (EDTA) blood was collected pretreatment and subsequently at multiple time points in all patients (0, 2, 4, 6, 8, 10, and 24 h post-dose on day 1 for both time schedules and thereafter at days 3, 8, 10, 15, 17, and 22 for the once weekly schedule and at days 3, 15, 17, and 29 for the once every 2 weeks schedule). All samples were centrifuged within 1 h after collection at 2000 g for 10 min (at 4 degrees Celsius (°C)), plasma was separated and stored at −80 °C until the day of analysis.
Since there is no evidence for the exact relationship between plasma and tumor concentrations, we chose to use the concentration–time data calculated by NONMEM for Cmax, the average concentration over time (Caverage) and the trough concentrations just before the next dose was administered (Ctrough) based on rich PK-data of each individual patient. […] Inter-occasion variability in bioavailability and absorption duration were allowed in the model. The control stream of the final model and the goodness-of-fit plots are supplied in the Supplementary Material (Supplementary Data S3). The developed model was used to derive the individual predictions for the Cmax, Caverage, and Ctrough. SUM concentrations were calculated.
as §1, §2, §3, §4

[3] = system: MAP4K4; parameters: method as in earlier work; details: cited from earlier work
[4] = system: CLK1; parameters: method as in earlier work; details: cited from earlier work
[5] = system: Q6ZSR9; parameters: method as in earlier work; details: cited from earlier work

CCN(CC)CCNC(=O)c1c(C)[nH]c(/C=C2\C(=O)Nc3ccc(F)cc32)c1C [sunitinib]
Skin - Sunitinib concentration ([1]; 300 mg O1W): 7444 µg/L and 1839 µg/L and 611 µg/L and 3502 µg/L and 629 µg/L and 305 µg/L and 1571 µg/L and 1582 µg/L and 2451 µg/L and 1993 µg/L and 5819 µg/L and 4222 µg/L and 1881 µg/L
Skin - Sunitinib concentration ([1]; 300 mg O2W): 197 µg/L and 399 µg/L
Skin - Sunitinib concentration ([1]; 700 mg O2W): 6449 µg/L and 157 µg/L and 494 µg/L and 2120 µg/L and 13415 µg/L and 375 µg/L and 1238 µg/L and 1247 µg/L and 792 µg/L and 614 µg/L and 455 µg/L and 393 µg/L and 276 µg/L and 13960 µg/L and 3537 µg/L and 896 µg/L and 2370 µg/L and 4779 µg/L and 1278 µg/L
concentration at 17 day ([1]; 400 mg, 400 mg O1W): 1500 ng/mL
concentration at 17 day ([1]; 800 mg, 800 mg O2W): 520 ng/mL
Cmax ([2]; 200 mg, 200 mg O1W): 239 ng/mL
Cmax ([2]; 600 mg, 600 mg O2W): 190 ng/mL
